Test results reported in the supplement of paper PMC10307832.

What was measured:
Assay in all cases: relative viability (nuclei count vs DMSO), 5 days (fraction); higher = more cells survive
Cediranib + Bortezomib = compound: COc1cc2c(Oc3ccc4[nH]c(C)cc4c3F)ncnc2cc1OCCCN1CCCC1 [Cediranib] + CC(C)C[C@H](NC(=O)[C@H](Cc1ccccc1)NC(=O)c1cnccn1)B(O)O [Bortezomib] (partner 0.002 µM)
Method in brief: (§1)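 Lung cancer cell lines in 1536-well plates were dosed by pin tool the day after seeding, either with one drug alone or with a fixed anchor-drug dose plus five library-drug doses (not always all listed) in √10 steps. After 5 days, cells were fixed and their nuclei stained in one step (final 0.05% Triton X-100, 1% formaldehyde, 1 ug/ml Hoechst), then counted on 4× images. Relative viability is the nuclei count in treated wells divided by that in vehicle wells. Values are medians of duplicate plates.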

Decitabine + Pictilisib = compound: Nc1ncn([C@H]2C[C@H](O)[C@@H](CO)O2)c(=O)n1 [Decitabine] + CS(=O)(=O)N1CCN(Cc2cc3nc(-c4cccc5[nH]ncc45)nc(N4CCOCC4)c3s2)CC1 [Pictilisib] (partner 1 µM)
Method in brief: as §1

Cediranib + Crizotinib = compound: COc1cc2c(Oc3ccc4[nH]c(C)cc4c3F)ncnc2cc1OCCCN1CCCC1 [Cediranib] + C[C@@H](Oc1cc(-c2cnn(C3CCNCC3)c2)cnc1N)c1c(Cl)ccc(F)c1Cl [Crizotinib] (partner 1 µM)
Method in brief: as §1

Cediranib + Trametinib = compound: COc1cc2c(Oc3ccc4[nH]c(C)cc4c3F)ncnc2cc1OCCCN1CCCC1 [Cediranib] + CC(=O)Nc1cccc(-n2c(=O)n(C3CC3)c(=O)c3c(Nc4ccc(I)cc4F)n(C)c(=O)c(C)c32)c1 [Trametinib] (partner 0.02 µM)
Method in brief: as §1

Cell Line | relative viability (Cediranib + Bortezomib; first compound 0.04 µM) | relative viability (Cediranib + Bortezomib; first compound 0.1265 µM) | relative viability (Cediranib + Bortezomib; first compound 0.4 µM) | relative viability (Cediranib + Bortezomib; first compound 4 µM) | relative viability (Decitabine + Pictilisib; first compound 0.04 µM) | relative viability (Decitabine + Pictilisib; first compound 0.1265 µM) | relative viability (Decitabine + Pictilisib; first compound 0.4 µM) | relative viability (Decitabine + Pictilisib; first compound 1.265 µM) | relative viability (Decitabine + Pictilisib; first compound 4 µM) | relative viability (Cediranib + Crizotinib; first compound 0.04 µM) | relative viability (Cediranib + Crizotinib; first compound 0.1265 µM) | relative viability (Cediranib + Crizotinib; first compound 0.4 µM) | relative viability (Cediranib + Crizotinib; first compound 4 µM) | relative viability (Cediranib + Bortezomib; first compound 1.265 µM) | relative viability (Cediranib + Crizotinib; first compound 1.265 µM) | relative viability (Cediranib + Trametinib; first compound 0.04 µM) | relative viability (Cediranib + Trametinib; first compound 0.1265 µM) | relative viability (Cediranib + Trametinib; first compound 0.4 µM) | relative viability (Cediranib + Trametinib; first compound 1.265 µM) | relative viability (Cediranib + Trametinib; first compound 4 µM)
ABC-1 | 0.33 | 0.272 | 0.307 | 0.305 | 0.812 | 0.728 | 0.812 | 0.443 | 0.505 | 1.39 | 1.17 | 1.34 | 0.999 | – | – | – | – | – | – | –
NCI-H2023 | 1.04 | 0.447 | 0.897 | 1.02 | 0.244 | 0.252 | 0.174 | 0.142 | 0.143 | 0.579 | 0.703 | 0.489 | 0.588 | 0.849 | 0.575 | 0.592 | 0.585 | 0.565 | 0.591 | 0.905
NCI-H2342 | – | – | – | – | – | – | – | – | – | – | – | – | – | – | – | 0.841 | 0.897 | 0.849 | 0.877 | 0.812
SW 1573 | 1.1 | 1.04 | 0.899 | 1.09 | 0.535 | 0.425 | 0.491 | 0.279 | 0.202 | 0.833 | 0.764 | 0.726 | 0.889 | 1.05 | 0.717 | 0.667 | 0.624 | 0.57 | 0.55 | 0.496
NCI-H1993 | 1.07 | 1.32 | 1.08 | 1.05 | 0.866 | 0.973 | 0.788 | 0.9 | 0.725 | 0.968 | 0.902 | 0.886 | 0.858 | 1.07 | 0.865 | – | 0.48 | 0.56 | 0.504 | 0.641
NCI-H661 | 0.907 | 1.11 | 0.793 | 1.16 | 0.346 | 0.344 | 0.372 | 0.288 | 0.242 | 0.964 | 0.922 | 0.935 | 1.04 | 0.805 | 1.02 | 0.609 | 0.751 | 0.567 | 0.522 | 0.61
SK-MES-1 | – | – | – | – | 0.258 | 0.367 | 0.427 | 0.271 | 0.243 | 1.06 | 1.05 | 0.915 | 1.06 | – | 0.963 | 0.606 | 0.553 | 0.52 | 0.527 | 0.562
NCI-H1703 | 0.309 | 0.294 | 0.192 | 0.206 | 0.29 | 0.258 | 0.196 | 0.234 | 0.181 | 0.721 | 0.707 | 0.188 | 0.191 | 0.181 | 0.214 | – | – | – | – | –
NCI-H522 | – | – | – | – | – | – | – | – | – | – | – | – | – | – | – | 0.785 | 0.675 | 0.755 | 0.864 | 0.756
NCI-H1563 | 0.912 | 0.794 | 0.885 | 0.889 | 0.682 | 0.63 | 0.779 | 0.693 | 0.635 | 0.919 | 0.866 | 0.854 | 0.894 | 0.796 | 0.833 | – | – | – | – | –
NCI-H1793 | – | – | – | – | 0.308 | 0.351 | 0.245 | 0.302 | 0.224 | – | – | – | – | – | – | 0.449 | 0.446 | 0.407 | 0.435 | 0.432
NCI-H358 | – | – | – | – | 0.315 | 0.335 | 0.352 | 0.313 | 0.25 | 0.546 | 0.641 | 0.637 | 0.428 | – | 0.567 | 0.148 | 0.156 | 0.123 | 0.106 | 0.131
SW 900 | – | – | – | – | – | – | – | – | – | – | – | – | – | – | – | 0.76 | 1.08 | 0.636 | 0.83 | 0.885
IA-LM | 1.01 | 1.14 | 0.926 | 0.912 | 0.253 | 0.269 | 0.163 | 0.147 | 0.0969 | 0.775 | 1.28 | 0.718 | 0.992 | 0.771 | 0.828 | – | – | – | – | –
NCI-H2170 | – | – | – | – | 0.256 | 0.254 | 0.312 | 0.285 | 0.269 | 1.45 | 1.42 | 1.05 | 1.37 | – | 1.13 | 0.993 | – | 0.935 | 0.81 | 0.986
EBC-1 | 0.702 | 0.628 | 0.528 | 0.687 | 0.277 | 0.295 | 0.252 | 0.214 | 0.169 | 0.17 | 0.213 | 0.21 | 0.172 | 0.687 | 0.201 | – | – | – | – | –
NCI-H1944 | – | – | – | – | 0.353 | 0.424 | 0.369 | 0.319 | 0.299 | 1.14 | 1.03 | 0.994 | 1.06 | – | 1.05 | 0.402 | 0.377 | 0.409 | 0.4 | 0.474
LK-2 | – | – | – | – | – | 0.607 | 0.505 | 0.401 | 0.396 | 0.19 | 0.222 | 0.247 | 0.257 | – | 0.25 | 0.889 | 0.573 | 0.668 | 0.742 | 0.643
NCI-H1299 | 1.06 | 1.06 | 1.03 | 1.04 | 0.836 | 0.881 | 0.829 | 0.619 | 0.505 | 0.982 | 0.945 | 0.957 | 0.929 | 1.03 | 0.92 | – | – | – | – | –
